Results published in the NIST ThermoML archive (doi:10.1016/j.jct.2015.02.004).
Numbers after ± are expanded uncertainties.

conditions: 298.15 K; 101.33 kPa; Liquid; Pycnometric method

| SMILES | mass density |
| --- | --- |
| CC(C)=O [acetone] | 783.8 ± 1.9 kg/m3 |
| CCOC(C)=O [ethyl acetate] | 893.4 ± 2.1 kg/m3 |
| CCCCO [butan-1-ol] | 805.5 ± 2 kg/m3 |
| CO [methanol] | 786.3 ± 1.9 kg/m3 |
| CC(C)O [propan-2-ol] | 780.6 ± 1.9 kg/m3 |

Now from value to molecule:

| mass density | SMILES |
| --- | --- |
| 784.2 ± 1.9 kg/m3 | CCO [ethanol] |
| 776.3 ± 1.9 kg/m3 | CC#N [acetonitrile] |
| 734.1 ± 1.9 kg/m3 | COC(C)(C)C [2-methoxy-2-methylpropane] |
